What all share (test): relative viability (nuclei count vs DMSO), 5 days (fraction); higher = more cells survive
Compound in experiment [1]: CC(C)=CC[C@@H](O)C1=CC(=O)c2c(O)ccc(O)c2C1=O [Shikonin] + COc1cc2c(Oc3ccc(NC(=O)C4(C(=O)Nc5ccc(F)cc5)CC4)cc3F)ccnc2cc1OCCCN1CCOCC1 [Foretinib] (partner 0.25 µM)
The method, boiled down: (§1)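 Medians of duplicate plates are given as relative viability. That measure is the nuclei count in treated wells divided by the count in vehicle wells. Counts were taken on 4× images of lung cancer cell lines in 1536-well plates, 5 days after pin-tool dosing the day after seeding with one drug alone or a fixed anchor-drug dose plus five library-drug doses (not always all listed) in √10 steps.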

Compound in experiment [2]: CC(C)=CC[C@@H](O)C1=CC(=O)c2c(O)ccc(O)c2C1=O [Shikonin] + Nc1ncn([C@H]2C[C@H](O)[C@@H](CO)O2)c(=O)n1 [Decitabine] (partner 2 µM)
The method, boiled down: as §1

Compound in experiment [3]: CC(C)=CC[C@@H](O)C1=CC(=O)c2c(O)ccc(O)c2C1=O [Shikonin] + O=C(CCCCCCC(=O)Nc1ccccc1)NO [Vorinostat] (partner 1 µM)
The method, boiled down: as §1

Compound in experiment [4]: CC(C)N(CCCNC(=O)Nc1ccc(C(C)(C)C)cc1)C[C@H]1O[C@@H](n2ccc3c(N)ncnc32)[C@H](O)[C@@H]1O + CC1(C)CCC(c2ccc(Cl)cc2)=C(CN2CCN(c3ccc(C(=O)NS(=O)(=O)c4ccc(N[C@H](CCN5CCOCC5)CSc5ccccc5)c(S(=O)(=O)C(F)(F)F)c4)cc3)CC2)C1 [Navitoclax] (partner 0.5 µM)
The method, boiled down:
as §1

On to NCI-H322M, for which the relative viability turned out to be 0.996 in experiment [1] (first compound 0.01 µM); 1.37 in experiment [1] (first compound 0.1 µM); 1.06 in experiment [1] (first compound 0.3162 µM); 0.99 in experiment [1] (first compound 1 µM); 0.736 in experiment [2] (first compound 0.01 µM); 0.723 in experiment [2] (first compound 0.1 µM). Besides, the relative viability in experiment [2] (first compound 0.3162 µM) was determined as 0.714; in experiment [2] (first compound 1 µM), 0.664; in experiment [3] (first compound 0.01 µM) it was 0.672; in experiment [3] (first compound 0.1 µM), 0.911; in experiment [3] (first compound 0.3162 µM), 0.953; in experiment [3] (first compound 1 µM), 0.978. The relative viability was 1.16 in experiment [4] (first compound 0.08 µM); 1.09 in experiment [4] (first compound 0.253 µM); 1.19 in experiment [4] (first compound 0.8 µM); 1.2 in experiment [4] (first compound 2.53 µM); 1.16 in experiment [4] (first compound 8 µM).
Take NCI-H358: the relative viability in experiment [1] (first compound 0.01 µM) stood at 0.651; in experiment [1] (first compound 0.1 µM), 0.729; in experiment [1] (first compound 0.3162 µM), 0.707; in experiment [1] (first compound 1 µM) it was 0.604; in experiment [2] (first compound 0.01 µM), 0.178; in experiment [2] (first compound 0.1 µM), 0.23. Further, the relative viability in experiment [2] (first compound 0.3162 µM) stood at 0.218; in experiment [2] (first compound 1 µM) it was 0.19; in experiment [3] (first compound 0.01 µM), 0.999; in experiment [3] (first compound 0.1 µM) it was 0.67; in experiment [3] (first compound 0.3162 µM), 0.856; in experiment [3] (first compound 1 µM), 0.573.
As to NCI-H441, the relative viability in experiment [1] (first compound 0.01 µM) was 0.941; in experiment [1] (first compound 0.1 µM) it was 1.17; in experiment [1] (first compound 0.3162 µM), 0.849; in experiment [1] (first compound 1 µM), 1.04; in experiment [2] (first compound 0.01 µM), 0.249; in experiment [2] (first compound 0.1 µM) it was 0.26. The relative viability in experiment [2] (first compound 0.3162 µM) is 0.258; in experiment [2] (first compound 1 µM) it was 0.206; in experiment [3] (first compound 0.01 µM), 0.875; in experiment [3] (first compound 0.1 µM), 0.832; in experiment [3] (first compound 0.3162 µM), 0.783; in experiment [3] (first compound 1 µM) it was 0.695. Also, the relative viability was determined as 0.66 in experiment [4] (first compound 0.253 µM), 0.682 in experiment [4] (first compound 0.8 µM), 0.698 in experiment [4] (first compound 2.53 µM) and 0.63 in experiment [4] (first compound 8 µM).
With NCI-H522, the relative viability worked out at 0.62 in experiment [2] (first compound 0.01 µM); 0.763 in experiment [2] (first compound 0.1 µM); 0.644 in experiment [2] (first compound 0.3162 µM); 0.553 in experiment [2] (first compound 1 µM); 0.875 in experiment [3] (first compound 0.01 µM); 1 in experiment [3] (first compound 0.1 µM). Moreover, the relative viability in experiment [3] (first compound 0.3162 µM) stood at 0.903; in experiment [3] (first compound 1 µM), 0.958.
As to NCI-H650, the relative viability in experiment [1] (first compound 0.01 µM) is 1.01; in experiment [1] (first compound 0.1 µM) it was 0.999; in experiment [1] (first compound 0.3162 µM), 1.08; in experiment [1] (first compound 1 µM), 1.01; in experiment [2] (first compound 0.01 µM) it was 0.295; in experiment [2] (first compound 0.1 µM), 0.314. The relative viability in experiment [2] (first compound 0.3162 µM) came out at 0.334; in experiment [2] (first compound 1 µM) it was 0.27; in experiment [3] (first compound 0.01 µM) it was 0.425; in experiment [3] (first compound 0.1 µM) it was 0.418; in experiment [3] (first compound 0.3162 µM), 0.465; in experiment [3] (first compound 1 µM) it was 0.439.
In the case of NCI-H661, the relative viability in experiment [1] (first compound 0.01 µM) worked out at 0.987; in experiment [1] (first compound 0.1 µM), 1.08; in experiment [1] (first compound 0.3162 µM), 1.09; in experiment [1] (first compound 1 µM), 0.976; in experiment [2] (first compound 0.01 µM) it was 0.51; in experiment [2] (first compound 0.1 µM), 0.552. In addition, the relative viability in experiment [2] (first compound 0.3162 µM) was found to be 0.572; in experiment [2] (first compound 1 µM) it was 0.529; in experiment [3] (first compound 0.01 µM), 0.837; in experiment [3] (first compound 0.1 µM), 0.833; in experiment [3] (first compound 0.3162 µM), 0.812; in experiment [3] (first compound 1 µM), 0.736.
For NCI-H1299, the relative viability came out at 1.08 in experiment [1] (first compound 0.01 µM); 1.15 in experiment [1] (first compound 0.1 µM); 1.09 in experiment [1] (first compound 0.3162 µM); 1.09 in experiment [1] (first compound 1 µM); 1.07 in experiment [4] (first compound 0.08 µM); 1.05 in experiment [4] (first compound 0.253 µM). Besides, the figures for the relative viability in experiment [4] (first compound 0.8 µM), in experiment [4] (first compound 2.53 µM) and in experiment [4] (first compound 8 µM) were 1.02, 1.06 and 1.02, respectively.
Consider NCI-H1563, for which the relative viability amounted to 0.935 in experiment [1] (first compound 0.01 µM), 0.848 in experiment [1] (first compound 0.1 µM), 1.06 in experiment [1] (first compound 0.3162 µM) and 0.902 in experiment [1] (first compound 1 µM).
As for NCI-H1648, the relative viability in experiment [2] (first compound 0.01 µM) stood at 0.481; in experiment [2] (first compound 0.3162 µM), 0.526; in experiment [2] (first compound 1 µM), 0.532; in experiment [3] (first compound 0.01 µM), 0.351; in experiment [3] (first compound 0.3162 µM), 0.672; in experiment [3] (first compound 1 µM) it was 0.509.
For NCI-H1703, the relative viability in experiment [1] (first compound 0.01 µM) is 0.361; in experiment [1] (first compound 0.1 µM), 0.401; in experiment [1] (first compound 0.3162 µM) it was 0.319; in experiment [1] (first compound 1 µM), 0.329; in experiment [4] (first compound 0.08 µM), 1.13; in experiment [4] (first compound 0.253 µM), 1.14. The relative viability in experiment [4] (first compound 0.8 µM) is 1.61; in experiment [4] (first compound 2.53 µM) it was 1.27; in experiment [4] (first compound 8 µM) it was 0.89.
As to NCI-H1792, the relative viability in experiment [2] (first compound 0.01 µM) is 0.567; in experiment [2] (first compound 0.1 µM), 0.553; in experiment [2] (first compound 0.3162 µM), 0.644; in experiment [2] (first compound 1 µM), 0.681; in experiment [4] (first compound 0.08 µM) it was 0.634; in experiment [4] (first compound 0.253 µM) it was 0.589. The relative viability in experiment [4] (first compound 0.8 µM) amounted to 0.623; in experiment [4] (first compound 2.53 µM), 0.591; in experiment [4] (first compound 8 µM), 0.571.
For NCI-H2228, the relative viability amounted to 0.824 in experiment [1] (first compound 0.01 µM); 0.619 in experiment [1] (first compound 0.1 µM); 0.895 in experiment [1] (first compound 0.3162 µM); 0.806 in experiment [1] (first compound 1 µM); 0.807 in experiment [3] (first compound 0.01 µM); 0.507 in experiment [3] (first compound 0.1 µM). Besides, the relative viability in experiment [3] (first compound 0.3162 µM) came out at 0.53; in experiment [3] (first compound 1 µM), 0.785; in experiment [4] (first compound 0.08 µM), 1.1; in experiment [4] (first compound 0.8 µM), 0.916; in experiment [4] (first compound 2.53 µM), 1.32; in experiment [4] (first compound 8 µM), 0.711.
For NCI-H2342, the relative viability in experiment [1] (first compound 0.01 µM) was 1; in experiment [1] (first compound 0.1 µM) it was 1.12; in experiment [1] (first compound 0.3162 µM), 1.03; in experiment [1] (first compound 1 µM), 1.03; in experiment [2] (first compound 0.01 µM), 0.723; in experiment [2] (first compound 0.1 µM) it was 0.72. Further, the relative viability came to 0.74 in experiment [2] (first compound 0.3162 µM); 0.748 in experiment [2] (first compound 1 µM); 0.872 in experiment [3] (first compound 0.01 µM); 0.722 in experiment [3] (first compound 0.1 µM); 0.78 in experiment [3] (first compound 0.3162 µM); 0.764 in experiment [3] (first compound 1 µM).
Take SW 900: the relative viability in experiment [1] (first compound 0.01 µM) amounted to 1.04; in experiment [1] (first compound 0.1 µM) it was 0.987; in experiment [1] (first compound 0.3162 µM), 0.915; in experiment [1] (first compound 1 µM) it was 0.801; in experiment [2] (first compound 0.01 µM) it was 0.373; in experiment [2] (first compound 0.1 µM), 0.536. In addition, the relative viability came out at 0.395 in experiment [2] (first compound 0.3162 µM); 0.396 in experiment [2] (first compound 1 µM); 0.357 in experiment [3] (first compound 0.01 µM); 0.458 in experiment [3] (first compound 0.1 µM); 0.377 in experiment [3] (first compound 0.3162 µM); 0.576 in experiment [3] (first compound 1 µM).
